Data reported in paper PMC4037345 (ChemMedChem, 2014).

Tests used:
OVCA429 = assay: Resazurin-based viability assay, 48 hr treatment, OVCA429; type: cell-based, human; settings: read-out: OVCA429 IC50
SKOV3 = assay: Resazurin-based viability assay, 48 hr treatment, SKOV3; type: cell-based, human; settings: read-out: SKOV3 IC50
[1] = parent drugs; cited from earlier work
Albumin = Albumin (Homo sapiens, UniProt P02768); settings: parent drugs; cited from earlier work
[2] = cited from earlier work

Albumin, sequence (P02768 25-609, species assumed): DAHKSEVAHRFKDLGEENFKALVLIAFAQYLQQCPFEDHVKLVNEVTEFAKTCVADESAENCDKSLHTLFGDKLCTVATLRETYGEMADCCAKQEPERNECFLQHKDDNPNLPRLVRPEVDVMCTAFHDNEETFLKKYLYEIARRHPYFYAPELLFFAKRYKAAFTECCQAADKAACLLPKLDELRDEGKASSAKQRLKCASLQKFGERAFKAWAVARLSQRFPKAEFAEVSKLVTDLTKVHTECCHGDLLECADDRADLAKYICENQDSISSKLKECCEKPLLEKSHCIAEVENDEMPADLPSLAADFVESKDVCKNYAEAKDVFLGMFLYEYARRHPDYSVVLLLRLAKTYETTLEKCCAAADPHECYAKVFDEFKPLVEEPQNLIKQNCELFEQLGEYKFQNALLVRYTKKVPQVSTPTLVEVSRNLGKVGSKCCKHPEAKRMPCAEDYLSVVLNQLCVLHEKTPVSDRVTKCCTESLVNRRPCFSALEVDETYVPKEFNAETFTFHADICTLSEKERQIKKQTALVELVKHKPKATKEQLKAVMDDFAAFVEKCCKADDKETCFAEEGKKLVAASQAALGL

| SMILES | IC50 (OVCA429) [µM] | IC50 (SKOV3) [µM] | logP [1] | % Albumin Binding (Albumin) | t1/2 initial (initial plasma half-life) [2] |
| --- | --- | --- | --- | --- | --- |
| N.N.O=C([O-])C1(C(=O)[O-])CCC1.[Pt+2] [Carboplatin, carboplatin] | 210 ± 6 | 100 ± 6 | -2.3[30] | 40[29] % | 5[32-33] min |
| N.N.[Cl][Pt][Cl] [Cisplatin, cisplatin] | 15 ± 1 | 3 ± 0.3 | – | – | – |
